Series [1] concerns MC-38. The series is described as follows: Induction of mitochondrial membrane damage in mouse MC38 cells assessed as decrease in JC-1 aggregation by measuring red fluorescence at 4 uM measured after 48 hrs (reference value: 96.70%). Also on record: scale not given: the % may be the effect or the level left. The series is classed as functional.
Series [2] in a line: Half life in Sprague-Dawley rat at 20 mg/kg, po measured upto 12 hrs by LC-MS/MS analysis. The series is classed as ADME, organism-based. As to conditions: in vivo.
Series [3] in a line: Cmax in Sprague-Dawley rat at 20 mg/kg, po measured upto 12 hrs by LC-MS/MS analysis. As to conditions: in vivo. Type of series: ADME, organism-based.
Series [4] has as its system Mus musculus. The series is described as follows: Immunomodulatory effect in C57BL/6 mouse allografted mouse MC38 cells assessed as increase in tumor infiltrating lymphocytes by measuring increase in CD4+ T helper cells in mouse spleen at 50 mg/kg, po treated 5 days after cell inoculation 19 th day by flow cytometry analysis (reference value: 10.8%). Type of series: functional. As to conditions: time 15 day. A general note: Flow cytometry measures light scatter and fluorescence of single cells or particles in a stream.

In series [5] the test system is Mus musculus. Put plainly: Immunomodulatory effect in C57BL/6 mouse allografted mouse MC38 cells assessed as increase in tumor infiltrating lymphocytes by measuring increase in CD8+ T […] cells in tumor at 50 mg/kg, po treated 5 days after cell inoculation 19 th day by flow cytometry analysis (reference value: 2.32%). Type of series: functional. As to conditions: time 15 day.

Structures are written as SMILES.

By half-life is commonly meant the time in which the quantity being followed falls by half. As a reminder, the Cmax is the maximum level reached in the sampled fluid or tissue. Regarding `CCCNNC(=O)c1ccc(CNC(=O)c2cnc(-c3ccc4occc4c3)[nH]2)cc1`, the Activity in series [1] is 72.13%; in series [4], 12.9%; in series [5] it was 5.29%. The compound also had a half-life in series [2] of 3.13 h. This compound gave a Cmax in series [3] of 347 ng/mL.

The values above are taken from ChEMBL document CHEMBL6121046, “Discovery of Novel Hydrazide-Based HDAC3 Inhibitors as Epigenetic Immunomodulators for Cancer Immunotherapy” (J Med Chem, 2025).
